Laboratory results as given in DBAASP.
Converted amounts (≈) assume the structure as drawn. Blank lines part the entries; values can stand above or below the molecule they belong to.

Columns and labels:
Test in all cases: ≥ marks a high value that may be exact or a test limit, other limits are often not marked, values filed in µg/mL are converted to µM
Bacillus subtilis 168 = system: Bacillus subtilis 168
[1] = system: Candida albicans F7-39/IDE99
Pseudomonas aeruginosa = system: Pseudomonas aeruginosa
[2] = system: Micrococcus luteus CCM 144
Escherichia coli B = system: Escherichia coli B
Staphylococcus aureus = system: Staphylococcus aureus
[3] = system: Pseudomonas aeruginosa H1001
Escherichia coli BL21 = system: Escherichia coli BL21
Escherichia coli MG1655 = system: Escherichia coli MG1655
[4] = system: Staphylococcus epidermidis
[5] = system: Klebsiella pneumoniae ATCC 27736
[6] = system: Pseudomonas aeruginosa ATCC BAA-427
[7] = system: Bacillus subtilis ATCC 6633
Streptococcus mutans = system: Streptococcus mutans

MIC (Bacillus subtilis 168): 1.5 µM (≈ 4.17 µg/mL)
MIC [1]: 18.7 µM (≈ 52 µg/mL)
MIC (Pseudomonas aeruginosa): > 100 µM
MIC [2]: 0.8 µM (≈ 2.22 µg/mL)
MIC (Escherichia coli B): ≥ 32.5 µM
MIC (Staphylococcus aureus): > 100 µM
Compound: CC[C@H](C)[C@@H]1NC(=O)[C@H](CCCCN)NC(=O)[C@H](CCCCN)NC(=O)[C@@H]2CSSC[C@H](NC(=O)[C@H](C)NC(=O)[C@H](C(C)C)NC(=O)[C@@H](NC(=O)[C@@H](NC(=O)[C@@H](NC(=O)[C@H](CCCCN)NC(=O)[C@H](CCCCN)NC(=O)[C@@H](NC(=O)[C@H](CC(=O)O)NC(=O)[C@@H](N)CC(C)C)C(C)C)[C@@H](C)CC)[C@@H](C)CC)CSSC[C@@H](C(=O)N3CCC[C@H]3C(=O)N[C@@H](CCCCN)C(=O)O)NC1=O)C(=O)N[C@@H](CCCCN)C(=O)N[C@@H]([C@@H](C)CC)C(=O)N[C@@H](CCCN=C(N)N)C(=O)N1CCC[C@H]1C(=O)N[C@@H](CC(N)=O)C(=O)N1CCC[C@H]1C(=O)N[C@@H](C)C(=O)N2 [LDVKKIICVACKIRPNPACKKICPK]

MIC [3]: 0.0872 µM (≈ 0.21 µg/mL)
Compound: CC[C@H](C)[C@H](NC(=O)[C@H](CCCN=C(N)N)NC(=O)[C@H](CCCN=C(N)N)NC(=O)[C@@H]1CCCN1C(=O)CNC(=O)[C@H](CCCN=C(N)N)NC(=O)[C@@H]1CCCN1C(=O)[C@H](CCCN=C(N)N)NC(=O)[C@@H]1CCCN1C(=O)[C@H](CC(C)C)NC(=O)[C@H](Cc1ccc(O)cc1)NC(=O)[C@@H]1CCCN1C(=O)[C@@H]1CCCN1C(=O)[C@H](CCCCN)NC(=O)[C@H](CC(=O)O)NC(=O)[C@@H](N)C(C)C)C(=O)N[C@@H](Cc1ccc(O)cc1)C(=O)N[C@@H](CC(N)=O)C(=O)N[C@@H](CCCN=C(N)N)C(=O)NCC(=O)O [VDKPPYLPRPRGPRRIYNRG]

MIC (Bacillus subtilis 168): 5.8 µM (≈ 8.57 µg/mL)
MIC [1]: 7.7 µM (≈ 11.4 µg/mL)
MIC (Pseudomonas aeruginosa): 31.7 µM (≈ 46.8 µg/mL)
MIC [2]: 4.5 µM (≈ 6.65 µg/mL)
MIC (Escherichia coli B): 11.3 µM (≈ 16.7 µg/mL)
MIC (Staphylococcus aureus): 76.7 µM (≈ 113 µg/mL)
Compound: CC[C@H](C)[C@H](NC(=O)[C@H](CCCCN)NC(=O)CNC(=O)[C@H](Cc1c[nH]c2ccccc12)NC(=O)[C@H](CC(N)=O)NC(=O)[C@@H](N)CCCCN)C(=O)N[C@@H](CC(C)C)C(=O)N[C@@H](CCCCN)C(=O)N[C@@H](Cc1cnc[nH]1)C(=O)N[C@H](C(=O)N[C@H](C(=O)N[C@@H](CCCCN)C(N)=O)[C@@H](C)CC)[C@@H](C)CC [KNWGKILKHIIK]

MIC (Escherichia coli BL21): 6 µM (≈ 21.5 µg/mL)
MIC (Escherichia coli MG1655): 12 µM (≈ 42.9 µg/mL)
MIC [4]: 4 µM (≈ 14.3 µg/mL)
Compound: CC[C@H](C)[C@H](NC(=O)[C@H](CCCCN)NC(=O)[C@H](CCCN=C(N)N)NC(=O)[C@H](CCCCN)NC(=O)[C@H](CCCCN)NC(=O)[C@H](CCCCN)NC(=O)[C@H](Cc1c[nH]c2ccccc12)NC(=O)[C@H](CCCCN)NC(=O)[C@H](CC(C)C)NC(=O)[C@H](Cc1c[nH]c2ccccc12)NC(=O)[C@H](CCCN=C(N)N)NC(=O)[C@H](CC(=O)O)NC(=O)[C@H](CCSC)NC(C)=O)C(=O)N[C@@H](CCCN=C(N)N)C(=O)N[C@@H](CCCN=C(N)N)C(=O)N[C@@H](CCCN=C(N)N)C(=O)N[C@@H](CCCN=C(N)N)C(=O)N[C@@H](CCCN=C(N)N)C(=O)N[C@@H](CCCN=C(N)N)C(=O)N[C@@H](CCCN=C(N)N)C(=O)N[C@@H](CCCN=C(N)N)C(=O)N[C@@H](CCCN=C(N)N)C(=O)N[C@@H](CCCN=C(N)N)C(=O)N[C@@H](CCCN=C(N)N)C(N)=O [MDRWLKWKKKRKIRRRRRRRRRRR]

MIC [5]: 3 µM (≈ 7.76 µg/mL)
MIC [6]: 4 µM (≈ 10.3 µg/mL)
MIC [7]: 6 µM (≈ 15.5 µg/mL)
Compound: CC[C@H](C)[C@H](NC(=O)CNC(=O)[C@H](CCCN=C(N)N)NC(=O)[C@H](Cc1ccccc1)NC(=O)[C@@H](NC(=O)[C@H](Cc1cnc[nH]1)NC(=O)[C@H](Cc1cnc[nH]1)NC(=O)[C@H](Cc1ccccc1)NC(=O)[C@@H](N)Cc1ccccc1)[C@@H](C)CC)C(=O)N[C@H](C(=O)N[C@@H](Cc1cnc[nH]1)C(=O)N[C@H](C(=O)NCC(=O)N[C@@H](CCCCN)C(=O)N[C@H](C(=O)N[C@H](C(=O)N[C@@H](Cc1cnc[nH]1)C(=O)N[C@@H](CCCN=C(N)N)C(=O)N[C@@H](CC(C)C)C(=O)N[C@H](C(=O)N[C@H](C(=O)NCC(N)=O)[C@@H](C)O)C(C)C)[C@@H](C)CC)[C@@H](C)O)[C@@H](C)CC)C(C)C [FFHHIFRGIVHIGKTIHRLVTG]

MIC (Streptococcus mutans): 11.6 µM (≈ 32 µg/mL)
Compound: C[C@H](NC(=O)[C@H](CO)NC(=O)[C@H](C)NC(=O)[C@H](Cc1ccccc1)NC(=O)[C@H](Cc1c[nH]c2ccccc12)NC(=O)[C@H](Cc1c[nH]c2ccccc12)NC(=O)[C@H](Cc1c[nH]c2ccccc12)NC(=O)[C@H](CCCN=C(N)N)NC(=O)[C@H](CCCN=C(N)N)NC(=O)[C@@H](N)CCCN=C(N)N)C(=O)N[C@@H](CO)C(=O)N[C@@H](C)C(=O)N[C@@H](CCCN=C(N)N)C(=O)N[C@@H](CCCN=C(N)N)C(=O)N[C@@H](CCCN=C(N)N)C(=O)N[C@@H](Cc1c[nH]c2ccccc12)C(=O)N[C@@H](Cc1c[nH]c2ccccc12)C(=O)N[C@@H](Cc1c[nH]c2ccccc12)C(=O)N[C@@H](Cc1ccccc1)C(N)=O [RRRWWWFASASARRRWWWF]

MIC (Bacillus subtilis 168): 2.5 µM (≈ 4.79 µg/mL)
MIC [1]: 25 µM (≈ 47.9 µg/mL)
MIC (Pseudomonas aeruginosa): 31.7 µM (≈ 60.8 µg/mL)
MIC [2]: 1.7 µM (≈ 3.26 µg/mL)
MIC (Escherichia coli B): 3.7 µM (≈ 7.09 µg/mL)
MIC (Staphylococcus aureus): 3.7 µM (≈ 7.09 µg/mL)
Compound: CC[C@H](C)[C@H](NC(=O)[C@H](CC(C)C)NC(=O)[C@H](CCCCN)NC(=O)[C@@H](NC(=O)[C@@H](NC(=O)[C@H](Cc1cnc[nH]1)NC(=O)[C@@H]1CCCN1C(=O)[C@H](CC(C)C)NC(=O)[C@@H](NC(=O)[C@H](CCCCN)NC(=O)[C@H](C)NC(=O)[C@H](CC(C)C)NC(=O)[C@H](CC(C)C)NC(=O)[C@H](CO)NC(=O)[C@H](C)NC(=O)[C@H](CCSC)NC(=O)CN)C(C)C)C(C)C)C(C)C)C(=O)N[C@@H](CCCCN)C(N)=O [GMASLLAKVLPHVVKLIK]

MIC (Streptococcus mutans): 31.8 µM (≈ 44.7 µg/mL)
Compound: CC[C@H](C)[C@H](NC(=O)[C@H](CCCCN)NC(=O)[C@H](CC(C)C)NC(=O)[C@H](CC(C)C)NC(=O)[C@H](CCC(N)=O)NC(=O)[C@H](CCCCN)NC(=O)[C@@H](N)C(C)C)C(=O)N[C@@H](Cc1ccccc1)C(=O)N[C@@H](CC(N)=O)C(=O)N[C@@H](CCCN=C(N)N)C(=O)N[C@@H](Cc1ccccc1)C(N)=O [VKQLLKIFNRF]

MIC [5]: 6 µM (≈ 15.3 µg/mL)
MIC [6]: 12 µM (≈ 30.7 µg/mL)
MIC [7]: 8 µM (≈ 20.5 µg/mL)
Compound: CC[C@H](C)[C@H](NC(=O)CNC(=O)[C@H](CCCN=C(N)N)NC(=O)[C@H](Cc1ccccc1)NC(=O)[C@@H](NC(=O)[C@H](Cc1cnc[nH]1)NC(=O)[C@H](Cc1cnc[nH]1)NC(=O)[C@H](Cc1ccccc1)NC(=O)[C@@H](N)Cc1ccccc1)C(C)C)C(=O)N[C@H](C(=O)N[C@@H](Cc1cnc[nH]1)C(=O)N[C@H](C(=O)NCC(=O)N[C@@H](CCCCN)C(=O)N[C@H](C(=O)N[C@H](C(=O)N[C@@H](Cc1cnc[nH]1)C(=O)N[C@@H](CCCN=C(N)N)C(=O)N[C@@H](CC(C)C)C(=O)N[C@H](C(=O)N[C@H](C(=O)NCC(N)=O)[C@@H](C)O)C(C)C)[C@@H](C)CC)[C@@H](C)O)C(C)C)C(C)C [FFHHVFRGIVHVGKTIHRLVTG]

MIC (Streptococcus mutans): 3.9 µM (≈ 8 µg/mL)
Compound: CC(C)C[C@H](NC(=O)[C@H](CC(C)C)NC(=O)[C@H](CCCCN)NC(=O)[C@H](CCCCN)NC(=O)[C@H](CC(C)C)NC(=O)[C@@H](N)CCCCN)C(=O)N[C@@H](CCCCN)C(=O)N[C@@H](CCCN=C(N)N)C(=O)N[C@@H](Cc1c[nH]c2ccccc12)C(=O)N[C@@H](CCCN=C(N)N)C(=O)N[C@@H](CCCN=C(N)N)C(=O)N[C@@H](Cc1c[nH]c2ccccc12)C(=O)N[C@@H](Cc1c[nH]c2ccccc12)C(=O)N[C@@H](CCCN=C(N)N)C(=O)O [KLKKLLKRWRRWWR]

MIC (Streptococcus mutans): ≥ 44.6 µM
Compound: CC[C@H](C)[C@H](NC(=O)[C@H](Cc1cnc[nH]1)NC(=O)[C@H](CC(C)C)NC(=O)[C@H](CC(C)C)NC(=O)[C@@H](NC(=O)[C@H](CCCCN)NC(=O)[C@@H](N)C(C)C)[C@@H](C)O)C(=O)N[C@@H](Cc1ccccc1)C(=O)N[C@@H](CCC(N)=O)C(=O)N[C@@H](CCCN=C(N)N)C(=O)N[C@@H](Cc1ccccc1)C(N)=O [VKTLLHIFQRF]
